Measured values: patent US20050014160A1, “Assays for protease enzyme activity” (priority 2003, published 2005)
Square brackets hold non-standard residues; d marks the D form. Ends that are not written are not given here. Sta = CC(C)C[C@H](N)[C@@H](O)CC(=O)O

What was measured:
[1] = biological target: T1, β-secretase (Homo sapiens, UniProt P56817); assay: QTL/QTP assay for β-secretase activity with quencher-tether-biotin peptide substrates; format: biochemical
Experimental: In a 384-well plate, […] of β-secretase peptide substrate solution of appropriate concentration was mixed with a given amount of β-secretase enzyme in a total volume of […] in assay buffer. In the same plate, a control experiment was also set up where the same amount of peptide was taken in assay buffer but no enzyme was added. The experiments were usually done in triplicate sets for both sample and control. After a given time period of incubation at CRT, the fluorescent polymer in polymer buffer was added to the sample and control wells. The well plate was shaken inside the plate reader and the fluorescence intensity of the samples was measured. The difference in relative fluorescence units between sample and control wells is a measure of enzyme activity.
In the above example, the polymer can include any of the following: • A. Biotin binding protein (BBP) functionalized polystyrene latex carboxylic acid microspheres that are coated with conjugated polymer 1; • B. Solution complex of BBP and biotinylated polymer 2; • C. Microspheres as in A that are doped with a small amount of Phycoerythrin or related fluorescent protein conjugated to biotin; • D. Solution Sensor as in B doped with a small amount of Phycoerythrin or related fluorescent protein conjugated to biotin; and • E. Covalent conjugate of Phycoetythrin or another fluorescent protein and BBP. […]
The assay performance was further improved when the polymer microsphere sample A was doped with a small amount of Biotin-R-Phycoerythrin (Biotin-R-PE) conjugate. In one experiment, BSEC-1, BSEC-3 (a,b) (same peptide substrate synthesized by different vendors) and BSEC-4 were all exposed to β-secretase enzyme under identical conditions to compare their efficiencies in the assay. Polymer sample C was prepared fresh just before the start of experiment by mixing together Polymer A and Biotin-R-PE in a ratio designed to provide 5×10^6 microspheres doped with 100 fmol of Biotin-R-PE per well in a volume of 10 μL.
To 5 μL of a 300 nM solution of each peptide substrate in assay buffer in separate wells was added 10 ng of β-secretase enzyme in 5 μL of assay buffer to start the reactions. Each reaction was performed in triplicate. Controls were performed for each peptide without enzyme in quadruplicate. The samples were incubated at CRT for 60 minutes. At the end of the incubation period, the Biotin-R-PE doped polymer C was added to each well. The plate was shaken in the plate reader for 60 seconds, then probed for emission at 576 nm by exciting at 440 nm and using 475 nm cut-off filter. BSEC-1 gave RFU values of 6270±196 for control and 9645±152 for sample. BSEC-3a gave RFUs of 7656±20 for control and 15022±743 for sample while BSEC-3b gave RFUs of 6054±41 and 12265±913 for control and sample respectively. In comparison, BSEC-4 gave values of 9207±364 and 9732±319 for control and sample respectively.
The polymer solution sensor B was prepared by mixing together 56.5 nmol of Avidin (Biotin binding protein, BBP) and 848 nmol of biotinylated PPE polymer 2 in a total volume of 11.3 μL and incubating at CRT for 24 hours. The polymer and the BBP combine with each other through the biotin-avidin interaction to form stable entities. The solution sensor thus prepared was diluted appropriately with polymer buffer at the beginning of each experiment.
To 5 μL of a 400 nM solution of BSEC-1 in assay buffer in a 384 well plate was added 30 ng of β-secretase dissolved in 5 μL of assay buffer. The mixture was made in triplicate and incubated for 30 minutes at CRT. The control wells contained only peptide and no enzyme. After incubation, a 100-fold dilution of the above solution sensor was added at 20 μL to each well. The plate was shaken inside the microplate reader and the wells were probed by exciting the polymer at 440 nm and measuring emission intensity at 530 run. The control wells gave an average RFU value of 5400±200 and the sample wells containing enzyme gave RFU of 8350±200. […]

[2] = biological target: Streptavidin-B-Phycoerythrin conjugate (SAv-BPE) (Streptomyces avidinii, UniProt P22629); assay: Superquenching of fluorescent conjugate by β-secretase peptide substrate (Stern-Volmer); details: 2.5 nM solution of the fluorescent conjugate SAv-BPE
Description: In another embodiment of the invention, the fluorescent polymer is a biological ensemble comprising phycoerythrin or phycobilisome.

[3] = biological target: Caspase-3 enzyme (Homo sapiens, UniProt P42574); details: Example 10, peptide substrate with Caspase-3 at CRT; control without enzyme remains unchanged
Experimental: To a known amount of the peptide substrate represented by SEQ ID NO:8 in assay buffer is added a sample solution of Caspase-3 enzyme in one well of a 384-well plate. In another well, the peptide substrate is taken without enzyme. The plate is incubated at CRT and the sample and control wells measured for fluorescence intensity at various time periods. […] An assay of this type is represented in FIG. 3.

[4] = biological target: T1, β-secretase; assay: QTL assay for inhibition of β-secretase activity by a known inhibitor; format: biochemical; details: for delta-over-control RFU: BSEC-1 substrate, 30 ng β-secretase, 15 minutes, Polymer A, without inhibitor 4468±85
Description: In another embodiment, the QTL assay is capable of detecting the inhibition of β-secretase activity in unknown samples. Whereas, in the absence of any inhibitory substance in the reaction mixture, the enzyme would cleave a large portion of the reactive tether present, in the presence of an effective inhibitor, the enzyme loses most of its activity. The QTL assay provides evidence of partial or total inhibition of enzyme activity through a lowering or complete lack of “fluorescence recovery” in such samples.
The structure of the statine-derived peptide inhibitor of β-secretase is given below:
STA-200 is a well-known inhibitor of β-secretase activity. To 2.5 μL of an 800 nM solution of BSEC-1 in assay buffer was added 30 ng of β-secretase and the volume made up to a total of 10 μL with assay buffer. In another well, 2.5 μL of 800 nM BSEC-1 solution was incubated with a pre-mixed solution of 2.5 μL of STA-200 solution and 30 ng of β-secretase so that the final volume is again 10 μL. Two control reactions were also set up in separate wells where one had only peptide in assay buffer while the other had peptide and inhibitor incubating in assay buffer. All samples were incubated at CRT for 15 minutes followed by the addition to each of 19.2 μL of Polymer A suspension (1×10^7 microspheres) in polymer buffer. The mixtures were then probed for emission at 530 nm by exciting them at 440 nm and using 475 nm cut-off filter. The mixture of peptide and enzyme alone gave a delta-over-control RFU of 4468±85. In comparison, a mixture of peptide, enzyme and 60 nM STA-200 (600 fmol) gave a delta-over-control RFU of 2746±241 while a mixture containing 250 nM STA-200 (2.5 pmol) gave a corresponding value of only 865±178.

[5] = Example 7: 300 nM substrate, 20 ng β-secretase, 30 minutes, SAv-BPE (Polymer E), ex 490 nm/em 576 nm
[6] = Example 7: 300 nM substrate, no enzyme, 30 minutes, SAv-BPE (Polymer E), ex 490 nm/em 576 nm
[7] = Example 3: 300 nM substrate, 10 ng β-secretase, 60 minutes at CRT, Biotin-R-PE doped polymer C, ex 440 nm/em 576 nm
[8] = Example 3: 300 nM substrate, no enzyme, 60 minutes at CRT, Biotin-R-PE doped polymer C, ex 440 nm/em 576 nm

T1 sequence (P56817 46-501): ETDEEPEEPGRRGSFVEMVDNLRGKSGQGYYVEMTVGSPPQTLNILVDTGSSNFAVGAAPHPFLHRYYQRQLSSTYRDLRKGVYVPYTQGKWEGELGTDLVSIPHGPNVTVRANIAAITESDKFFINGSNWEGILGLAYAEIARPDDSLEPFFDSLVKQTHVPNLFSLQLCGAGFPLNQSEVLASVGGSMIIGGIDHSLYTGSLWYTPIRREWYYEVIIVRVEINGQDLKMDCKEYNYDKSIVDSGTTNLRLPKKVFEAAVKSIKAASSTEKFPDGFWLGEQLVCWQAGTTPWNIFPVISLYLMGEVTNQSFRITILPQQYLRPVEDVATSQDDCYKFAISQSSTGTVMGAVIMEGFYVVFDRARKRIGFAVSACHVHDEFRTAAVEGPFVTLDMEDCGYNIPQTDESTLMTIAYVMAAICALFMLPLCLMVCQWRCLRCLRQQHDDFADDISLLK
Caspase-3 enzyme, sequence (P42574 29-175 limits assumed, species assumed): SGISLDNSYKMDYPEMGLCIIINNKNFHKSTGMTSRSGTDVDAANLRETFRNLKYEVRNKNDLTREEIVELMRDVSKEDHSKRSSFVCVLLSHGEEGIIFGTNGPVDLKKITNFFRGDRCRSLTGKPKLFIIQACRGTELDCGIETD
Caspase-3 enzyme, sequence (P42574 176-277 limits assumed, species assumed): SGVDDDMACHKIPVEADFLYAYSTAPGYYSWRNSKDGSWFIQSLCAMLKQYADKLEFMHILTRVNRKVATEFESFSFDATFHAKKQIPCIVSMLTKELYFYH
Streptavidin-B-Phycoerythrin conjugate (SAv-BPE), sequence (P22629 25-183): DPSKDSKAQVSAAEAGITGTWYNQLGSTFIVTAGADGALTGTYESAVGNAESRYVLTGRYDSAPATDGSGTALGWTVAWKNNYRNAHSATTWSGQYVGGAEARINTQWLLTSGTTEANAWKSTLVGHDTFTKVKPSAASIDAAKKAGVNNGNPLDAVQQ
Streptavidin-B-Phycoerythrin conjugate (SAv-BPE), sequence (P11392 whole entry partner): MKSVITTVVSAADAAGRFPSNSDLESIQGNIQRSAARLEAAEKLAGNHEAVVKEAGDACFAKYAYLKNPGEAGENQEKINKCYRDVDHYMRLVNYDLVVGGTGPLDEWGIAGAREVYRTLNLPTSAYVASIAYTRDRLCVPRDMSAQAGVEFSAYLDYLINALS
Streptavidin-B-Phycoerythrin conjugate (SAv-BPE), sequence (P11393 whole entry partner): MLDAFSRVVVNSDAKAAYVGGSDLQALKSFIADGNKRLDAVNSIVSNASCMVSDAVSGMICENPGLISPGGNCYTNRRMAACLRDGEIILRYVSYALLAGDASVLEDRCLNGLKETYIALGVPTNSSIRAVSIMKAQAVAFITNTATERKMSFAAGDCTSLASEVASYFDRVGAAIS

## (AZO)-TEEISEVNLDAEFK-(Nε-Biotin) [BSEC-3]
[1]; Example 2: 400 nM substrate, 60 ng β-secretase, ten minutes at CRT, polymer A, ex 440 nm/em 530 nm
  RFU of sample: 10996±424 RFU
[1]; Example 2: 400 nM substrate, no enzyme, ten minutes at CRT, polymer A, ex 440 nm/em 530 nm
  RFU of control: 8111±707 RFU
[1]; Example 3: 300 nM substrate, 10 ng β-secretase, 60 minutes at CRT, Biotin-R-PE doped polymer C, ex 440 nm/em 576 nm, listed as BSEC-3a
  RFU of sample: 15022±743 RFU
[1]; Example 3: 300 nM substrate, 10 ng β-secretase, 60 minutes at CRT, Biotin-R-PE doped polymer C, ex 440 nm/em 576 nm, listed as BSEC-3b
  RFU of sample: 12265±913 RFU
[1]; Example 3: 300 nM substrate, no enzyme, 60 minutes at CRT, Biotin-R-PE doped polymer C, ex 440 nm/em 576 nm, listed as BSEC-3a
  RFU of control: 7656±20 RFU
[1]; Example 3: 300 nM substrate, no enzyme, 60 minutes at CRT, Biotin-R-PE doped polymer C, ex 440 nm/em 576 nm, listed as BSEC-3b
  RFU of control: 6054±41 RFU
[1]; Example 6: 300 nM substrate, 30 ng β-secretase, 30 minutes at CRT, doped solution sensor D, ex 440 nm/em 576 nm
  average RFU of sample wells: 14500±200 RFU
[1]; Example 6: 300 nM substrate, no enzyme, 30 minutes at CRT, doped solution sensor D, ex 440 nm/em 576 nm
  average RFU of control wells: 5200±100 RFU
[1]; [5]
  average RFU of enzyme wells: 18032±228 RFU
[1]; [6]
  average RFU of control wells: 11639±335 RFU

## (AZO)-TKKISEVNLDAEFRK-(Nε-Biotin) [BSEC-4]
[1]; [7]
  RFU of sample: 9732±319 RFU
[1]; [8]
  RFU of control: 9207±364 RFU

## (QSY-7)-TEEISEVNLDAEFK-(Nε-Biotin) [BSEC-1]
[1]; Example 1: 400 nM substrate, 20 ng β-secretase, 30 min at CRT, polymer A, ex 420 nm/em 530 nm
  relative fluorescence units (RFU) of sample: 9045±109 RFU
[1]; Example 1: 400 nM substrate, no enzyme, 30 min at CRT, polymer A, ex 420 nm/em 530 nm
  relative fluorescence units (RFU) of control: 5529±286 RFU
[1]; [7]
  RFU of sample: 9645±152 RFU
[1]; [8]
  RFU of control: 6270±196 RFU
[1]; Example 5: 400 nM substrate, 30 ng β-secretase, 30 minutes at CRT, solution sensor polymer B, ex 440 nm/em 530 nm
  RFU of sample wells containing enzyme: 8350±200 RFU
[1]; Example 5: 400 nM substrate, no enzyme, 30 minutes at CRT, solution sensor polymer B, ex 440 nm/em 530 nm
  average RFU of control wells: 5400±200 RFU
[1]; [5]
  average RFU of enzyme wells: 11828±556 RFU
[1]; [6]
  average RFU of control wells: 7671±286 RFU
[1]; Example 8: 2.5 μL of 800 nM substrate, 30 ng β-secretase, no inhibitor, 15 minutes at CRT, Polymer A, ex 440 nm/em 530 nm
  delta-over-control RFU, peptide and enzyme alone: 4468±85 RFU
[2]
  Stem-Volmer quenching constant: ~1e+08 M⁻¹

## D-E-V-D-Cyanine [SEQ ID NO:8]
[3]
  fluorescence intensity of sample with increasing time: increase in fluorescence

## KTEISEVN-(Sta)-VAEF-OH (KTEISEVN[Sta]VAEF-OH; N-terminus assumed; SMILES CC[C@H](C)[C@H](NC(=O)[C@H](CCC(=O)O)NC(=O)[C@@H](NC(=O)[C@@H](N)CCCCN)[C@@H](C)O)C(=O)N[C@@H](CO)C(=O)N[C@@H](CCC(=O)O)C(=O)N[C@H](C(=O)N[C@@H](CC(N)=O)C(=O)N[C@@H](CC(C)C)[C@@H](O)CC(=O)N[C@H](C(=O)N[C@@H](C)C(=O)N[C@@H](CCC(=O)O)C(=O)N[C@@H](Cc1ccccc1)C(=O)O)C(C)C)C(C)C) [STA-200]
[4]; 60 nM STA-200 (600 fmol)
  delta-over-control RFU: 2746±241 RFU
[4]; 250 nM STA-200 (2.5 pmol)
  delta-over-control RFU: 865±178 RFU
[4]; sample incubated for fifteen minutes
  IC50 value: in the range of nanomolar concentrations
